Assay results from publication PMC11685127, “Pharmacokinetic/pharma-codynamic study of pralurbactam (FL058) combined with meropenem in a neutropenic murine thigh infection model” (Frontiers in Microbiology, 2024).
Like-named read-outs stand apart in the source and are kept apart here.

What was measured:
[1] = Free fraction in in vitro mouse plasma; assay type: in vitro ADME
K. pneumoniae = test: Susceptibility testing (MIC); assay type: cell-based; conditions: drug alone
From the text: (§1) The study used a total of […] strains of KPC-, NDM-, or OXA-producing Enterobacterales (three strains of K. pneumoniae and four strains of E. coli), which were provided by Microbiology Division, Institute of Antibiotics, Huashan Hospital, Fudan University. Quality control strains are selected for each bacteria.
(§2) Supplementary Table 1 Susceptibility testing results of meropenem alone, pralurbactam alone, or meropenem with FL058 in combination against K. pneumoniae and E. coli

E. coli = test: Susceptibility testing (MIC); assay type: cell-based; conditions: drug alone
From the text: as §1, §2

[2] = tested on: class A, C, and D β-lactamases; parameters: method as in Sharma et al., 2016; conditions: ref Sharma et al., 2016; cited from earlier work
Klebsiella pneumoniae = test: Neutropenic murine thigh infection model, PK/PD Emax fitting; assay type: in vivo; conditions: fixed 100 mg/kg q2h of meropenem; strains 17-R1-16, 20-W2-70, ATCC BAA-1705
Experimental: (§3) Mice (SPF grade, female, 25–30 g, 6–7 weeks) were provided by Beijing Huafukang Biotechnology Co. The animal study was reviewed and approved by the Animal Ethics Committee of State Key Laboratory of Biotherapy, Sichuan University (approval letter No.: 20190923035). All experimental animals from the study were intraperitoneally injected with cyclophosphamide (solution using 0.9% sodium chloride injection to achieve a concentration of 15 mg/ml) at a dose of 150 mg/kg at 4 days and 1 day prior to the day of infection to form immunocompromised mouse models. The hair on both thighs of the mice was shaved off 2 h before inoculation. The injection site was disinfected with 75% alcohol before intramuscular injection and dried with skimmed cotton. The mouse was challenged by inoculum of 1 × 10^8 CFU/ml of the test strain via injection of 50 μl of bacterial solution into both thighs. The time was referred to as t = 0 h, 2 h after the mice were infected. The control mice were euthanized at this time to record the initial bacterial colonies by taking the thigh muscle. The specific dosage of pralurbactam or meropenem for each dosing regimen was intraperitoneally injected (t = 0 h). At 26 h after the mice were infected (t = 24 h), the mice (experimental group) in each dosage cohort were euthanized to record the bacterial load to calculate CFU change (Δlog10 CFU).

[3] = Single-dose intraperitoneal PK of pralurbactam in mice plasma (UPLC-MS/MS, one-compartment model, population PK); assay type: in vivo; conditions: for Dose proportionality of Cmax or AUCinf (PK linearity): 5-500 mg/kg ip, non-compartmental regression analysis
From the text: The ultra-high performance liquid chromatography-tandem mass spectrometry (UPLC-MS/MS) system consisted of an LC-30A UPLC (Shimadzu Corporation, Japan) equipped with an Atlantis® T3 (3 μm, 2.1 × 100 mm) column, liquidity, and the cleaning solution mixed with formic acid, ammonium acetate, and acetonitrile, an API5500 mass spectrometer (AB SCIEX, USA). The retention times of chromatographic peaks and mass-to-charge ratios were obtained by MRM scanning pralurbactam (m/z 383.2 → 303.0), meropenem (m/z 384.1 → 141.2), internal standards pralurbactam-D4 (m/z 387.3 → 307.1), and meropenem-D6 (m/z 390.1 → 147.2) for peak identification. The drug concentration in the samples was calculated using Watson LIMS (version 7.5).
The UPLC-MS/MS method used to measure pralurbactam and meropenem concentrations in mice plasma was validated accurately in terms of selectivity, interaction, matrix effect, calibration curve, linearity, precision, accuracy, recovery, and stability. […] At this LLOQ level, the intra- and inter-assay precision was 3.5%–9.0% and 6.3% for pralurbactam, 5.0%–10.7% and 14.3% for meropenem. The overall recovery of pralurbactam and meropenem was 81.2% and 58.6%, respectively, and the corresponding coefficient of variation (CV) was 8.0% and 5.4%. This assay method was applied to quantify pralurbactam and meropenem for PK study.
The administration method for pralurbactam or meropenem (dissolved in sterile water) is single-dose intraperitoneal injection. […] Five mice were randomly selected for anesthesia and orbital blood sampling at each time-point (0.083, 0.25, 0.5, 1, 2, 3, 4, and 6 h) after dosing. A blood sample (600–800 μl) was obtained from the mouse immediately. Each mouse selected for blood sampling at each time point was euthanized immediately. The concentrations of pralurbactam and meropenem in plasma samples were determined using the validated UPLC-MS/MS method. PK parameters (including non-compartmental parameter linear fitting and compartmental simulation) of pralurbactam and meropenem in plasma were calculated using Phoenix WinNonlin (version 8.1, Certara Corporation). The compartmental PK parameters of pralurbactam were used to calculate the fCmax, fAUC0–24, and %fT > CT. The free fraction of pralurbactam was 100% based on in vitro mouse plasma.
In this study, the PK parameters of pralurbactam were calculated for each dosage cohort using Phoenix WinNonlin software based on the mean plasma concentrations at each sampling point in mice. The mean values of the PK parameters were used to simulate the potential PK/PD indices. Another method, the PK parameters could be estimated by the population PK (PPK) model using NONMEM software based on the pooled plasma concentrations. The estimated typical values of Ke and V/F based on the population PK model of pralurbactam were generally consistent with the classical mean values of Ke (PPK: 2.34 h^1 vs. classical PK: 2.55 h^1) and V/F (PPK: 0.719 L vs. classical PK: 0.72 L).

Escherichia coli [4] = conditions: cited from earlier work
[5] = human, in vivo, cited from earlier work
Escherichia coli [6] = test: Neutropenic murine thigh infection model, PK/PD Emax fitting; assay type: in vivo; conditions: 50 mg/kg meropenem alone q2h (without pralurbactam); strains 18-W40-096 and ATCC BAA-2452
Experimental: as §3

[7] = mean of all dosage cohorts, classical one-compartment PK
[8] = population PK (PPK) model, NONMEM, typical value, pooled plasma concentrations
[9] = pralurbactam 5 mg/kg ip single dose, alone, one-compartment model
[10] = pralurbactam 50 mg/kg ip single dose, alone, one-compartment model
[11] = pralurbactam 50 mg/kg ip, combined with meropenem 100 mg/kg, one-compartment model
[12] = pralurbactam 250 mg/kg ip, combined with meropenem 100 mg/kg, one-compartment model
[13] = pralurbactam 500 mg/kg ip single dose, alone, one-compartment model

In the case of `N=C(N)NOCCONC(=O)[C@@H]1CC[C@@H]2CN1C(=O)N2OS(=O)(=O)O` [Pralurbactam], the Free fraction [1] is reported as 100%, the MIC (K. pneumoniae; 17-R1-16 (KPC-2, CTX-M-14)) is reported as > 64 µg/mL and the MIC (K. pneumoniae; 20-W2-70 (OXA-48)) is reported as 8 µg/mL. For the same compound, the MIC (K. pneumoniae; ATCC BAA-1705 (KPC-2)) was 4 µg/mL, the MIC (E. coli; 18-W32-020 (NDM-5)) was 2 µg/mL and the MIC (E. coli; 18-W39-088 (NDM-1)) was 4 µg/mL. For the same compound, the MIC (E. coli; 18-W40-096 (NDM-1)) was 4 µg/mL, the MIC (E. coli; ATCC BAA-2452 (NDM-1)) was 4 µg/mL and the “Activity against β-lactamases in vitro” value [2] was “active”. For the same compound, the “Pralurbactam dose in the combination that inhibits growth of all test strains” value (Klebsiella pneumoniae) was “at least 25 mg/kg”, the “%fT > 1 mg/L” value ([3]; 50 mg/kg q2h pralurbactam intraperitoneally in mice) was 88% and the “Dose proportionality of Cmax or AUCinf (PK linearity)” value [3] was “linear”. For the same compound, the “Dose proportionality of Cmax or AUCinf (PK linearity)” value ([3]; listed as pralurbactam) was “dose proportional”, the Ka [3, 7] was 50.2 h^1 and the Ke [3, 7] was 2.55 h^1. For the same compound, the V/F [3, 7] was 0.72 L, the Ka ([3]; median value of dosage cohorts, classical PK) was 26.0 h^1 and the Ka ([3]; population PK (PPK) model, NONMEM, estimate) was 29.1 h^1. The Ke [3, 8] was 2.34 h^1, the V/F [3, 8] was 0.719 L and the Ka [3, 9] was 27.4 h^1. The Ke [3, 9] was 2.24 h^1, the V/F [3, 9] was 0.77 L and the Ka [3, 10] was 13.7 h^1. The Ke [3, 10] was 3.83 h^1, the V/F [3, 10] was 0.55 L and the Ka [3, 11] was 24.5 h^1. It also gave a Ke [3, 11] of 2.11 h^1, a V/F [3, 11] of 0.79 L and a Ka [3, 12] of 26.0 h^1. It also gave a Ke [3, 12] of 1.93 h^1, a V/F [3, 12] of 0.91 L and a Ka [3, 13] of 159.4 h^1. For the same compound, the Ke [3, 13] was 2.64 h^1, the V/F [3, 13] was 0.57 L and the “Activity of pralurbactam alone” value (Escherichia coli [4]; ref Huang et al., 2024a) was “partial activity”. For the same compound, the “Inhibitory effect of pralurbactam alone” value (Escherichia coli [4]; ref in vitro susceptibility study (to be published)) was “notable inhibitory effects”, the “%fT > 1 mg/L” value ([5]; iv) was 86% and the “Safety, tolerance and PK profiles” value [5] was “good safety, tolerance, and PK profiles”.
With `C[C@@H](O)[C@H]1C(=O)N2C(C(=O)O)=C(S[C@@H]3CN[C@H](C(=O)N(C)C)C3)[C@H](C)[C@H]12` [Meropenem] the MIC (K. pneumoniae; 17-R1-16 (KPC-2, CTX-M-14)) was > 64 µg/mL, the MIC (K. pneumoniae; 20-W2-70 (OXA-48)) was 32 µg/mL and the MIC (K. pneumoniae; ATCC BAA-1705 (KPC-2)) was 16 µg/mL. For the same compound, the MIC (E. coli; 18-W32-020 (NDM-5)) was 32 µg/mL, the MIC (E. coli; 18-W39-088 (NDM-1)) was > 64 µg/mL and the MIC (E. coli; 18-W40-096 (NDM-1)) was 64 µg/mL. For the same compound, the MIC (E. coli; ATCC BAA-2452 (NDM-1)) was 32 µg/mL and the “Growth inhibition in thigh model” value (Escherichia coli [6]) was “significant growth inhibition”.
